Earlier results in patent publication US20070141150A1, “Pharmaceutical composition” (priority 2003, published 2007).
Structures can show the parent of a compound that is named as a salt.

Settings: interaction between propranolol and the polyanionic methacrylic acid copolymer

## CC(C)NCC(O)COc1cccc2ccccc12 (stereo not shown) [propranolol, propranolol hydrochloride]
  Hill coefficient: 1.5
